Article PMC11322497 (Frontiers in Pharmacology, 2024)

Tested on: high fat diet (HFD) rabbit model of metabolic-associated steatohepatitis (MASH)
Experiment: HFD rabbit study, prolonged 4-week treatment: liver histomorphology and immunohistochemistry
Type: in vivo, New Zealand White rabbits
Conditions: weeks 9–12; for Ballooning score 0 (no ballooning), share of animals / Ballooning score 1 (few ballooned cells), share of animals / Ballooning score 2 (prominent ballooning), share of animals / Fibrosis (Ishak Score) 0, share of animals / Fibrosis (Ishak Score) 1, share of animals / Fibrosis (Ishak Score) 2, share of animals / Fibrosis (Ishak Score) 3, share of animals / Fibrosis (Ishak Score) 4, share of animals / Fibrosis (Ishak Score) 5, share of animals / Inflammation score 0 (no foci), share of animals / Inflammation score 1 (<2 foci), share of animals / Inflammation score 2 (2–4 foci), share of animals / Inflammation score 3 (> 4 foci), share of animals: n=7
Method: After 1 week (W) of RD, the animals (n = 44) were randomly assigned to the following groups (Table 1B): • Control rabbits continued to receive a RD for 12 weeks and were treated with vehicle for 5 days a week (days 1–5, p.o.) during the last 4 weeks before culling (RD + 4W Veh group); • Rabbits received a HFD for 8 weeks and were culled (HFD 8W group); • Rabbits received a HFD for 12 weeks and were treated with vehicle for 5 days a week (days 1–5, p.o.) during the last 4 weeks before culling (HFD+4W Veh group); • Rabbits received a HFD for 12 weeks and were treated with GB1211 (0.3 mg/kg) for 5 days a week (days 1–5, p.o.) during the last 4 weeks before culling (HFD + 4W 0.3 mg group); • Rabbits received a HFD for 12 weeks and were treated with GB1211 (1.0 mg/kg) for 5 days a week (days 1–5, p.o.) during the last 4 weeks before culling (HFD + 4W 1.0 mg group); • Rabbits received a HFD for 12 weeks and were treated with GB1211 (5.0 mg/kg) for 5 days a week (days 1–5, p.o.) during the last 4 weeks before culling (HFD + 4W 5.0 mg group).
Liver specimens were fixed in 10% buffered formalin (Sigma-Aldrich Corp., St. Louis, MO), paraffin embedded and sectioned at a thickness of 5 μm with a microtome. The slides were stained with hematoxylin and eosin (H&E; both Bio-Optica, Milan, Italy), following standard protocols for histological analysis, to evaluate the general morphology and tissue structure, and then analyzed to evaluate inflammation and […] using Giemsa and Masson’s trichrome staining, respectively. Briefly, deparaffinized and rehydrated sections were incubated with Giemsa (Bio-Optica) in distilled water at ratio 1:1 or with Masson’s trichrome (Bio-Optica), following the manufacturer’s instructions, as previously described ([Vignozzi et al., 2014]). To evaluate lipid accumulation, liver specimens were also cryosectioned at a thickness of 8 μm, fixed with 4% paraformaldehyde, treated for 2–5 min with isopropanol and stained with Oil Red O (Bio-Optica) for 20 min, following the manufacturer’s instructions.
In liver, collagen content evaluation for fibrosis grade and quantification was conducted by staining using Picrosirius Red Stain kit (Bio-Optica), as per manufacturer’s instructions. Briefly, deparaffinized and rehydrated sections were incubated with the staining solution for 50 min, rinsed with the appropriate reagents and with distilled water, dehydrated through ascending alcohols and xylene, and mounted, as previously described ([Comeglio et al., 2017]).
The expression of RAM11, galectin-3, and vimentin was evaluated by immunohistochemical analysis on 5 μm thick paraffin embedded liver sections. Briefly, deparaffinized and rehydrated sections were incubated overnight at 4°C with mouse monoclonal anti-RAM11 (1:80; Dako, Carpenteria, CA), mouse monoclonal anti-galectin-3 (1:100; Abcam, Cambridge, United Kingdom) or mouse monoclonal anti-vimentin (1:800; Santa Cruz Biotechnology, Dallas, TX) antibodies, followed by biotinylated anti-mouse secondary antibody (Millipore, Burlington, MA) and streptavidin-peroxidase complex (Millipore). The reaction product was developed with 3′,3′-diaminobenzidine tetrahydrochloride as chromogen (Merck KgaA, Darmstadt, Germany). Negative controls were performed avoiding primary antibody. Percentage of the sampled area for galectin-3 and vimentin staining was obtained on ×200 and ×40 original magnification slides, respectively, using ImageJ software on five fields for each slide. Semi-quantitative staining of percentage of the sampled area for Picrosirius Red, Oil Red O, galectin-3 and vimentin was obtained using open source Java-based ImageJ software (Fiji bundle, https://imagej.net/). All slides were evaluated blindly and photographed using a Nikon Microphot-FXA microscope (Nikon, Tokyo, Japan).

## OC[C@H]1O[C@H](Sc2cncc(Br)c2)[C@H](O)[C@@H](n2cc(-c3cc(F)c(F)c(F)c3)nn2)[C@H]1O [selvigaltin]
HFD rabbits, 0.3 mg and 5.0 mg dosages
  Picrosirius Red percentage of fibrosis area: only partially counteracted
HFD rabbits, 0.3 mg/kg p.o.
  Ballooning score 0 (no ballooning), share of animals: 0.0%
  Ballooning score 1 (few ballooned cells), share of animals: 42.9%
  Ballooning score 2 (prominent ballooning), share of animals: 57.1%
  Fibrosis (Ishak Score) 0, share of animals: 0.0%
  Fibrosis (Ishak Score) 1, share of animals: 14.3%
  Fibrosis (Ishak Score) 2, share of animals: 0.0%
  Fibrosis (Ishak Score) 3, share of animals: 57.1%
  Fibrosis (Ishak Score) 4, share of animals: 28.6%
  Fibrosis (Ishak Score) 5, share of animals: 0.0%
  Inflammation score 0 (no foci), share of animals: 14.3%
  Inflammation score 1 (<2 foci), share of animals: 42.8%
  Inflammation score 2 (2–4 foci), share of animals: 42.8%
  Inflammation score 3 (> 4 foci), share of animals: 0.0%
HFD rabbits, 1.0 mg/kg p.o.
  Ballooning score 0 (no ballooning), share of animals: 0.0%
  Ballooning score 1 (few ballooned cells), share of animals: 85.7%
  Ballooning score 2 (prominent ballooning), share of animals: 14.3%
  Fibrosis (Ishak Score) 0, share of animals: 0.0%
  Fibrosis (Ishak Score) 1, share of animals: 0.0%
  Fibrosis (Ishak Score) 2, share of animals: 85.7%
  Fibrosis (Ishak Score) 3, share of animals: 14.3%
  Fibrosis (Ishak Score) 4, share of animals: 0.0%
  Fibrosis (Ishak Score) 5, share of animals: 0.0%
  Inflammation score 0 (no foci), share of animals: 14.3%
  Inflammation score 1 (<2 foci), share of animals: 71.4%
  Inflammation score 2 (2–4 foci), share of animals: 14.3%
  Inflammation score 3 (> 4 foci), share of animals: 0.0%
HFD rabbits, 1.0 mg/kg, not significantly different from controls
  Liver steatosis (Oil Red O staining): mild beneficial effect
HFD rabbits, 1.0 mg/kg, p < 0.05 vs. HFD + Veh
  Picrosirius Red percentage of fibrosis area: normalized
HFD rabbits, 1.0 mg/kg, p = 0.072 vs. HFD + Veh
  Vimentin positivity in liver: borderline reduction
HFD rabbits, 5.0 mg/kg p.o.
  Ballooning score 0 (no ballooning), share of animals: 0.0%
  Ballooning score 1 (few ballooned cells), share of animals: 57.1%
  Ballooning score 2 (prominent ballooning), share of animals: 42.9%
  Fibrosis (Ishak Score) 0, share of animals: 0.0%
  Fibrosis (Ishak Score) 1, share of animals: 0.0%
  Fibrosis (Ishak Score) 2, share of animals: 42.8%
  Fibrosis (Ishak Score) 3, share of animals: 42.8%
  Fibrosis (Ishak Score) 4, share of animals: 14.3%
  Fibrosis (Ishak Score) 5, share of animals: 0.0%
  Inflammation score 0 (no foci), share of animals: 0.0%
  Inflammation score 1 (<2 foci), share of animals: 100.0%
  Inflammation score 2 (2–4 foci), share of animals: 0.0%
  Inflammation score 3 (> 4 foci), share of animals: 0.0%
HFD rabbits, 0.3, 1.0, 5.0 mg/kg
  Liver steatosis (Oil Red O staining): without significant differences among HFD groups
HFD rabbits, all selvigaltin treatments (0.3, 1.0, 5.0 mg/kg)
  Galectin-3 immunohistochemical positivity in liver: only partially abated
